According to PMC3945162 (Psychopharmacology, 2013):

Columns and labels:
hDAT [1] = biological target: T1, hDAT (Homo sapiens, UniProt Q01959); assay: [3H]Dopamine release, HEK-hDAT cells; assay type: cell-based; details: read-out: [3H]Dopamine release % METH maximal effect
human 5-HT2C receptor [2] = biological target: T2, human 5-HT2C receptor (Homo sapiens, UniProt P28335); assay: cell-based
T2 sequence (P28335 33-458): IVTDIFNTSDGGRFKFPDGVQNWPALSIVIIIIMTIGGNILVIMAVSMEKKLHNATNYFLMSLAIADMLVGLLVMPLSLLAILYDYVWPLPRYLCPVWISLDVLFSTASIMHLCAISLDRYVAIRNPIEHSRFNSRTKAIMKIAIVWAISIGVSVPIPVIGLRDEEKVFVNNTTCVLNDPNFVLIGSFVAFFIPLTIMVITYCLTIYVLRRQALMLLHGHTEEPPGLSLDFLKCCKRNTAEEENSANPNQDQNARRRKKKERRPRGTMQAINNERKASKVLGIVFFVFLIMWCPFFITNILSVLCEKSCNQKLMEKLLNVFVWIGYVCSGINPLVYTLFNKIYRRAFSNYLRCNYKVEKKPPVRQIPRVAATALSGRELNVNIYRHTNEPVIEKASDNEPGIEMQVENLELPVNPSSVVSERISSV

hNET [3] = biological target: T3, hNET (Homo sapiens, UniProt P23975); assay: biochemical; assay type: binding
T3 sequence (P23975 whole entry): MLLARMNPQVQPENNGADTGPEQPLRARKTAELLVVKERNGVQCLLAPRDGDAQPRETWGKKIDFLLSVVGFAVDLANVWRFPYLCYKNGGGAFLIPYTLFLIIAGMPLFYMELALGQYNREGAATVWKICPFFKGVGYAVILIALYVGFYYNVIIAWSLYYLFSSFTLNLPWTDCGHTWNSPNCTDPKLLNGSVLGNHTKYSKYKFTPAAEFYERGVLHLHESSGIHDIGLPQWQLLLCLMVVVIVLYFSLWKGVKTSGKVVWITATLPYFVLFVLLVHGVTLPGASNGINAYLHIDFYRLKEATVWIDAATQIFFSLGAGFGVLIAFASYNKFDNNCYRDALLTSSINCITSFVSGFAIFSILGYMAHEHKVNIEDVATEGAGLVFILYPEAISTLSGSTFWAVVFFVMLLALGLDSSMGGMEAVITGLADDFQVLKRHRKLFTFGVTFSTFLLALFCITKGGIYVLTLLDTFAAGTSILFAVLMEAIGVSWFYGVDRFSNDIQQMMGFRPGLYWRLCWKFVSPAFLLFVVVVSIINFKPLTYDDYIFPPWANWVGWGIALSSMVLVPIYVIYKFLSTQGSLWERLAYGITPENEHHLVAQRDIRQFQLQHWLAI

human 5-HT2C receptor [4] = biological target: T2, human 5-HT2C receptor; assay: biochemical; assay type: binding; details: read-out: 5-HT2C [125I]DOI binding Ki ± sem
hSERT [5] = biological target: T4, hSERT (Homo sapiens, UniProt P31645); assay: [125I]RTI-55 binding, HEK-hSERT cells
T4 sequence (P31645 whole entry): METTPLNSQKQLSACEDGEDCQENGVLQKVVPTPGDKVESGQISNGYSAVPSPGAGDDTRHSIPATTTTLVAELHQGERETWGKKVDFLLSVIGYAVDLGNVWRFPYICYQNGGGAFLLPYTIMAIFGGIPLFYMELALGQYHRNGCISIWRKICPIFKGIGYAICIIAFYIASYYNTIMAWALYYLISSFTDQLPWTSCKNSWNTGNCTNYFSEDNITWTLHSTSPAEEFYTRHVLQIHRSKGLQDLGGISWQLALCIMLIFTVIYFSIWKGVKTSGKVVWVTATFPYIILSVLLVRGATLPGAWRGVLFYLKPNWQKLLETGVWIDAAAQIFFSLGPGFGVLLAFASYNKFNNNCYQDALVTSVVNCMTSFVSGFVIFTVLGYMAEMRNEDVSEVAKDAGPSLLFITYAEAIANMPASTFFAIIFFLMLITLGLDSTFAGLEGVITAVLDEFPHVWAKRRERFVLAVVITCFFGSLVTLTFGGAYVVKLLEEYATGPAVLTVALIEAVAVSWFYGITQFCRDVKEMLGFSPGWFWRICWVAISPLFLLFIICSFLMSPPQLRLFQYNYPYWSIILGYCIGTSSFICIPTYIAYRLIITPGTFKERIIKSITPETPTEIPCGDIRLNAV

human 5-HT1A receptor [6] = biological target: T5, human 5-HT1A receptor (Homo sapiens, UniProt P08908); assay: [3H]8-OH-DPAT binding, HEK-5-HT1A
T5 sequence (P08908 1-422): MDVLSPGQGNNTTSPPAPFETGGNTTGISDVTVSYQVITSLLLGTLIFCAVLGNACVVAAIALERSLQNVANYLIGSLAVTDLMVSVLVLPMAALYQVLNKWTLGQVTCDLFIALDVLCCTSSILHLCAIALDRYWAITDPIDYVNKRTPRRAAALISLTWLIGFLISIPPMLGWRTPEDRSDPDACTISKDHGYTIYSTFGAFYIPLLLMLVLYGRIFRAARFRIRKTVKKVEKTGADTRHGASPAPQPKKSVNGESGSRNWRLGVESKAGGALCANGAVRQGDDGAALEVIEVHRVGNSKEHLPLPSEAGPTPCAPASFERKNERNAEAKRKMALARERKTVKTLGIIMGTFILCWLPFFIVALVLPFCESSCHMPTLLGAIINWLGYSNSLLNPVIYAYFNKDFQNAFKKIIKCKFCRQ

hDAT [7] = biological target: T1, hDAT; assay: [3H]Dopamine uptake, HEK-hDAT cells; assay type: cell-based
hNET [8] = biological target: T3, hNET; details: read-out: [3H]NE release EC50; HEK-hNET cells; ref Gatch et al., 2011; cited from earlier work
hNET [9] = biological target: T3, hNET; assay: cell-based
hDAT [10] = biological target: T1, hDAT; details: read-out: [3H]Dopamine release EC50; HEK-hDAT cells; ref Gatch et al., 2011; cited from earlier work
human 5-HT1A receptor [11] = biological target: T5, human 5-HT1A receptor; assay: [35S]GTPγS binding functional assay, HEK-5-HT1A; assay type: biochemical
human 5-HT2A receptor [12] = biological target: T6, human 5-HT2A receptor (Homo sapiens, UniProt P28223); assay: [125I]DOI binding, HEK-5-HT2A cells
T6 sequence (P28223 whole entry): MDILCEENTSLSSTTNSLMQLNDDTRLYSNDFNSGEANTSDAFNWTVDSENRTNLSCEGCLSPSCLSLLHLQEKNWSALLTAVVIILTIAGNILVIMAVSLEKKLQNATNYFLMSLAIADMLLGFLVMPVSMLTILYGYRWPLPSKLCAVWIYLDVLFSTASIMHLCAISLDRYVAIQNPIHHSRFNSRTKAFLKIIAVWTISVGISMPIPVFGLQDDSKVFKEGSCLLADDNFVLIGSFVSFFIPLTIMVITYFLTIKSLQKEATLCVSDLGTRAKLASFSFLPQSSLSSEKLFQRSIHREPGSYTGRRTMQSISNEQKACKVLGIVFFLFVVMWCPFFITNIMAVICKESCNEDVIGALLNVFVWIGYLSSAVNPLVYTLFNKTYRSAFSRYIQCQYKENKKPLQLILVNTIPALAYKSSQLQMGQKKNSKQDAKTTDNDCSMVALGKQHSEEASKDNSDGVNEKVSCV

hNET [13] = biological target: T3, hNET; assay: cell-based; details: read-out: [3H]NE release % METH maximal effect
hSERT [14] = biological target: T4, hSERT; details: read-out: [3H]Serotonin release EC50; HEK-hSERT cells; ref Gatch et al., 2011; cited from earlier work
hDAT [15] = biological target: T1, hDAT; assay: [125I]RTI-55 binding, HEK-hDAT cells
human 5-HT2A receptor [16] = biological target: T6, human 5-HT2A receptor; assay: IP-1 formation, HEK-5-HT2A cells; assay type: cell-based

T1 sequence (Q01959 whole entry): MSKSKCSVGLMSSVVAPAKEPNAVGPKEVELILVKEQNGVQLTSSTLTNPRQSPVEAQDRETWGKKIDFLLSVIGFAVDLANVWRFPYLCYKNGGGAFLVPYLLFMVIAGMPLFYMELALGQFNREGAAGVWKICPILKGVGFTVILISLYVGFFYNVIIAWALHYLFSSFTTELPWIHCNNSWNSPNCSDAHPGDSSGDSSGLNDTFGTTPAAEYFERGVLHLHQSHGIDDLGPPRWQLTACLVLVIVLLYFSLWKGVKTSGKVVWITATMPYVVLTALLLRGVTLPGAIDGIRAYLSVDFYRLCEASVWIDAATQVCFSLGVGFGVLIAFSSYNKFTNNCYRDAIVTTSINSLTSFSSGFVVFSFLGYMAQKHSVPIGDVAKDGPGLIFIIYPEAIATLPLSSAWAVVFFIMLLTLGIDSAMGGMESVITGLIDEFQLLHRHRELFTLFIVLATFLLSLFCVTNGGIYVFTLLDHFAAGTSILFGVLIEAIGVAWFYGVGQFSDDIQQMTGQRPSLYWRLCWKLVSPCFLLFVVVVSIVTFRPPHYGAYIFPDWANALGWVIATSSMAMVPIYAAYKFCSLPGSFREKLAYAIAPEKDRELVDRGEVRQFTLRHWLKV

Q: For CN[C@@H](C)Cc1ccccc1 [METH, methamphetamine, reference compound], which Emax (hDAT [1]) is on record?
A: The Emax was 100%.

Q: And the EC50 (human 5-HT2C receptor [2])?
A: Its EC50 is 74 ± 16 µM.

Q: And the Emax (human 5-HT2C receptor [2]; read-out: 5-HT2C Function IP-formation % maximal effect)?
A: The Emax was 52 ± 10%.

Q: And the Ki (hNET [3])?
A: Its Ki is 1.48 ± 0.13 µM.

Q: What about the Ki (human 5-HT2C receptor [4]) of the same compound?
A: The Ki was 10.1 ± 3.2 µM.

Q: And the Ki (hSERT [5])?
A: The Ki was 188 ± 14 µM.

Q: And the Ki (human 5-HT1A receptor [6])?
A: Its Ki is 9.7 ± 1.8 µM.

Q: What about the IC50 (hDAT [7]) of the same compound?
A: The IC50 was 0.056 ± 0.015 µM.

Q: What about the EC50 (hNET [8]) of the same compound?
A: Its EC50 is 0.067 ± 0.018 µM.

Q: What about the IC50 (hNET [9]) of the same compound?
A: The IC50 was 0.023 ± 0.0055 µM.

Q: What about the EC50 (hDAT [10]) of the same compound?
A: Its EC50 is 0.97 ± 0.25 µM.

Q: And the EC50 (human 5-HT1A receptor [11])?
A: Its EC50 is 23.6 ± 8.1 µM.

Q: What about the Emax (human 5-HT1A receptor [11]; read-out: 5-HT1A Function [35S]GTPγS Binding % maximal effect) of the same compound?
A: The Emax was 68 ± 11%.

Q: And the Ki (human 5-HT2A receptor [12])?
A: Its Ki is 41.9 ± 9.6 µM.

Q: And the Emax (hNET [13])?
A: Its Emax is 100%.

Q: And the EC50 (hSERT [14])?
A: Its EC50 is 27.8 ± 7.7 µM.

Q: What about the Ki (hDAT [15]) of the same compound?
A: The Ki was 4.75 ± 0.53 µM.

Q: What about the EC50 (human 5-HT2A receptor [16]) of the same compound?
A: Its EC50 is over 1000 µM.

Q: What about the Emax (human 5-HT2A receptor [16]; read-out: 5-HT2A Function IP-1 formation % maximal effect) of the same compound?
A: The Emax was under 3%.
